Results taken from patent US20250377351A1, “METHOD FOR IDENTIFYING EFFECTIVE TREATMENTS AGAINST NEURODEGENERATIVE DISORDERS” (AcuraStem Incorporated, priority 2018, published 2025).

What was measured:
Format in all cases: cell-based, human
[1] = system: C9-ALS iMN lines; test: iMN survival assay (longitudinal tracking, hazard ratio vs DMSO) in C9-ALS lines; details: 3 μM, 2 weeks, media change every 3 days, three C9-ALS iMN lines
Method: (§1) Daily imaging was performed to collect data at multiple time points over ˜2 weeks, and then analysis of the data enabled single cell longitudinal tracking during the progressive stages of cell death. The hazard ratio (hR) derived from the Cox model is used to indicate the survival rate of neurons, where a ratio greater than 1 indicates a negative association with survival. A P value is also calculated, which functions as a statistical test of the two hazard functions using the Wald test. In addition, a standard deviation, which replicates the hR value, and survival curves are calculated and graphed. […]
(§2) Induced neuron survival assay: Hb9::RFP^+iMNs appeared between days 13-16 after retroviral transduction. […] Neurons were scored as dead when their soma was no longer detectable by RFP fluorescence. All neuron survival assays were performed at least twice, with equal numbers of neurons from three individual replicates from one of the trials being used for the quantification shown. All trials quantified were representative of other trials of the same experiment. […]

[2] = system: sporadic ALS (sALS) iMNs; test: iMN survival assay in sporadic ALS lines; details: screen hits
Method: as §1, §2

[3] = system: healthy control iMN lines; test: iMN survival assay in healthy control lines; details: 1 μM, 3 weeks, five healthy control lines
Method: as §1, §2

[4] = system: ALS patient iMNs; test: iMN survival assay in ALS patient motor neurons (line type not specified); details: hR vs DMSO
Method: as §1, §2

SMILES	iMN survival, hazard ratio of treatment vs DMSO [1]	potency among hit compounds efficacious against sporadic ALS patient iMNs [2]	iMN survival, treatment vs DMSO group [3]	performance in patient motor neurons (hR) of drugs tested in ALS clinical trials [4]
Cc1cccc(/C=N/Nc2cc(N3CCOCC3)nc(OCCc3ccccn3)n2)c1 [Apilimod]	significant beneficial effect	among the most potent	No significance difference	–
CC1=NN(c2ccccc2)C(=O)C1 [edaravone]	–	–	–	do best
Nc1nc2ccc(OC(F)(F)F)cc2s1 [riluzole]	–	–	–	do best
